Test results published in ChEMBL document CHEMBL3813599, “Identification of small-molecule compounds targeting the dishevelled PDZ domain by virtual screening and binding studies” (Bioorg Med Chem, 2016).
Calls of active or inactive are those of the source. The calls are words filed in the database; no cut-off is given here.

Tests used:
[1] = target: T1, Segment polarity protein dishevelled homolog DVL-1 (Mus musculus, UniProt P51141); assay: Binding affinity to TMR-linked 15N-labeled mouse Dvl-1 domain ( 247 to 341 residues) by fluorescence spectroscopy
T1 sequence (P51141 whole entry): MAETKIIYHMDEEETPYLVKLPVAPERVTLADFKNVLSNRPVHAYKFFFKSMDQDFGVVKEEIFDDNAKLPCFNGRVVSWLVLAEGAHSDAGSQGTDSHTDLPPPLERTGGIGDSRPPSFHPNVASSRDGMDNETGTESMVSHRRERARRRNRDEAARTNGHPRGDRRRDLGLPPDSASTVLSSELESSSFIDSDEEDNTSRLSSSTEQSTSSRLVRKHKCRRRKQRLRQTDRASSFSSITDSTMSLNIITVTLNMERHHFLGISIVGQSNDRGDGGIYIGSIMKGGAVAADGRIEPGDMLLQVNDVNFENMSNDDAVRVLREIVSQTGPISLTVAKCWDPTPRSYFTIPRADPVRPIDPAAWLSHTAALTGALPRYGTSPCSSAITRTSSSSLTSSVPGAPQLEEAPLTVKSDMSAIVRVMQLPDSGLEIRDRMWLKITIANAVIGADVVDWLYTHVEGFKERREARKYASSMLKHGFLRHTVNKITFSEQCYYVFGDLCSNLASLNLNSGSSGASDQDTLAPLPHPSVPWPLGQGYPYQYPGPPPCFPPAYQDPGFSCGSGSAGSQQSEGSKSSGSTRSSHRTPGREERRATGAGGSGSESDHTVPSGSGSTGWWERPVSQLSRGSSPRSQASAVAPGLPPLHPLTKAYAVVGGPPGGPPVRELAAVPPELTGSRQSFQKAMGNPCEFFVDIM

[2] = target: T2, Segment polarity protein dishevelled homolog DVL-1 (Homo sapiens) (UniProt O14640)
T2 sequence (whole entry): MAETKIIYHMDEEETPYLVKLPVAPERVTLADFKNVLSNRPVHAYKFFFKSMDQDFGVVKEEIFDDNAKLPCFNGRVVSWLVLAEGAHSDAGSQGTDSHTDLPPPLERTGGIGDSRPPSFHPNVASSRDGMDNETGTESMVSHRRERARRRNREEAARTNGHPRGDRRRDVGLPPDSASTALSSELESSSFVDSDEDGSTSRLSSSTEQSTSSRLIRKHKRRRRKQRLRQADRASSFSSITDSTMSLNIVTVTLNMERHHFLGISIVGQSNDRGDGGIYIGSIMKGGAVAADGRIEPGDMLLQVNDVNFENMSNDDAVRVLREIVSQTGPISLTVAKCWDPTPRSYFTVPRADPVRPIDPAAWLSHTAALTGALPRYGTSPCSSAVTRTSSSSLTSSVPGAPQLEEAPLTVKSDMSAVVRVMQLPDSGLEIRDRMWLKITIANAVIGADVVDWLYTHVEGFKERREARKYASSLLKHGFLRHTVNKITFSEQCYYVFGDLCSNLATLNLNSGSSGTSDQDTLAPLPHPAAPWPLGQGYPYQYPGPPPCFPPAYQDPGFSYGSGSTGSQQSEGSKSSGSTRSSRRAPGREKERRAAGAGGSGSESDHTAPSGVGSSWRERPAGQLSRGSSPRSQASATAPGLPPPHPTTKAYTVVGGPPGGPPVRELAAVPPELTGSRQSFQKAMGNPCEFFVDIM
Description: Binding affinity to His-tagged Dvl-1 PDZ domain (247 to 337 residues) (unknown origin) expressed in Escherichia coli BL21 (DE3) assessed as association rate by SPR analysis

[3] = target: T3, Segment polarity protein dishevelled homolog DVL-1 (Homo sapiens, UniProt O14640); assay: Binding affinity to His-tagged Dvl-1 PDZ domain (247 to 337 residues) (unknown origin) expressed in Escherichia coli BL21 (DE3) assessed as dissociation rate by SPR analysis
T3 sequence (O14640 whole entry): T2 sequence (whole entry)

[4] = target: T3, Segment polarity protein dishevelled homolog DVL-1; assay: Binding affinity to His-tagged Dvl-1 PDZ domain (247 to 337 residues) (unknown origin) expressed in Escherichia coli BL21 (DE3) by SPR analysis
[5] = target: T2, Segment polarity protein dishevelled homolog DVL-1 (Homo sapiens); assay: Binding affinity to His-tagged Dvl-1 PDZ domain (247 to 337 residues) (unknown origin) expressed in Escherichia coli BL21 (DE3) assessed as chemical shift perturbations at 1:0 to 1:20 protein-compound ratio by 1H-15N-HSQC NMR analysis

| Kd [1] | Ka [2] | Dissociation rate constant (koff) [3] | Kd [4] | Activity [5] | Structure (SMILES) |
| --- | --- | --- | --- | --- | --- |
|  | 2.32 ×10³ /M/s | 6.22 ×10⁻¹ /s | 268 µM | Active | COc1cc(/C=C2\Sc3ccccc3C2=O)ccc1OCC(=O)O |
|  | 2.5 ×10³ /M/s | 3.81 ×10⁻¹ /s | 152 µM |  | CCCN1C(=O)/C(=C/c2ccc(OCC(=O)O)c(Cl)c2)NC1=S |

More lines, now with the values behind:

| Structure (SMILES) | Kd [1] | Ka [2] | Dissociation rate constant (koff) [3] | Kd [4] | Activity [5] |
| --- | --- | --- | --- | --- | --- |
| CC(C)[C@H](OC(=O)[C@H](C)NC(=O)[C@@H](OC(=O)[C@H](C)NC(=O)OC(C)(C)C)C(C)C)C(=O)O | 237 µM |  |  |  |  |
| O=C(O)Cc1coc2cc(OS(=O)(=O)c3ccc(Cl)cc3F)ccc12 |  | 1.04 ×10⁴ /M/s | 1.45 s⁻¹ | 139 µM |  |
| O=C(O)C1CCN(C(=O)c2cc(-c3ccc(Cl)s3)nc3ccccc23)CC1 |  | 5.47 ×10⁴ /M/s | 1.7 ×10¹ /s | 311 µM |  |
| COC(=O)CN1C(=O)S/C(=C/c2ccc(-c3cccc(C(=O)O)c3C)o2)C1=O |  | 4.68 ×10⁶ /M/s |  | 251 µM |  |
| COC(=O)COc1ccc(/C=C2\Sc3ccccc3C2=O)cc1 |  | 3.2 ×10³ /M/s | 2.51 s⁻¹ | 783 µM |  |
